Measured values reported in US20120052175A1 (priority 2010, published 2012).

Assay: Moisture sensitivity test: hydrolytic degradation of isothiocyanate in aqueous phosphate buffer
Type: physicochemical
Conditions: white mustard essential oil (about 25% 4-HBITC) suspended in aqueous phosphate buffer pH about 3.6, about 20-23° C., about 24 hours
Procedure: Supercritical fluid chromatography can be used to determine the amount of 4-hydroxybenzyl isothiocyanate in a preservative composition. First an accurately weighed amount of the preservative composition is either dissolved in a compatible solvent such as ethyl acetate or ethyl acetate and ethanol mixtures or solid preservative compositions are extracted repeatedly with ethyl acetate.
These solutions are analyzed by supercritical fluid chromatography using the method described by Buskov, S. et al., “Supercritical fluid chromatography as a method of analysis for the determination of 4-hydroxybenzylglucosinolate degradation products,” Journal of Biochemical and Biophysical Methods, Vol. 43, pp 157-174 (2000) with the following modifications. A Berger SFC 3D system equipped with a photodiode array detector (Berger Instruments Inc., Newark, Del.) is used for the analysis. […] The eluate is detected at 226 and 252 nm. […]
Moisture sensitive isothiocyanate compounds are identified by suspending the isothiocyanate containing material in an aqueous phosphate buffer (pH of about 3.6) at room temperature. […] The extraction procedure is repeated after 24 hours and the level of residual isothiocyanate compound is measured by supercritical fluid chromatography. […]

Q: For `Oc1ccc(CN=C=S)cc1` [4-hydroxybenzyl isothiocyanate], which “percent reduction in level of 4-hydroxybenzyl isothiocyanate after 24 hours” value is on record?
A: about 72%
